Laboratory results published in ChEMBL document CHEMBL3885861, “Open TG-GATES”.

Species on record: Rattus norvegicus
Experiment: Open TG-GATES - Regimen: Daily Repeat
Format: toxicity, organism-based, Sprague-Dawley
Design: regimen Daily Repeat, gender Male, age 6 weeks
Conditions: in vivo, po, route gavage; for APTT / Bas / Eos / Fbg / Hb / Ht / Lym / MCH / MCHC / MCV / Mono / Neu / PT / Plat / RBC / Ret / WBC: tissue Blood; for KIDNEY_L / KIDNEY_R / KIDNEY_TOTAL: tissue Kidney; for LIVER: tissue Liver; for A/G / ALP / ALT / AST / BUN / CRE / Ca / Cl / DBIL / GLC / IP / K / LDH / Na / PL / RALB / TBIL / TC / TG / TP / gamma-GTP: tissue Plasma
[1] = 0 mg/kg, 72 h, dose level Control, time 3 day
[2] = 0 mg/kg, […], dose level Control, time 7 day
[3] = 0 mg/kg, […], dose level Control, time 14 day
[4] = 0 mg/kg, […], dose level Control, time 28 day
[5] = 3 mg/kg, 72 h, dose level Low, time 3 day
[6] = 3 mg/kg, […], dose level Low, time 7 day
[7] = 3 mg/kg, […], dose level Low, time 14 day
[8] = 3 mg/kg, […], dose level Low, time 28 day

## CCN(CC)N=O [N-NITROSODIETHYLAMINE]
[1]
  TERMINAL_BW: 240.5 g
  APTT: 18.3 s
  Bas: 0.8%
  Eos: 1.2%
  Fbg: 218.2 mg/dL
  Hb: 13.8 g/dL
  Ht: 39.7%
  Lym: 77.6%
  MCH: 21.7 pg
  MCHC: 34.8%
  MCV: 62.3 fL
  Mono: 2.6%
  Neu: 17.6%
  PT: 12 s
  Plat: 135 x10_4/uL
  RBC: 638.8 x10_4/ul
  Ret: 5.8%
  WBC: 87.8 x10_2/uL
  KIDNEY_L: 1 g
  KIDNEY_R: 1 g
  KIDNEY_TOTAL: 2 g
  LIVER: 10.5 g
  A/G: 1.6
  ALP: 962 IU/L
  ALT: 35.8 IU/L
  AST: 67 IU/L
  BUN: 16.2 mg/dL
  CRE: 0.4 mg/dL
  Ca: 10.8 mg/dL
  Cl: 102.2 meq/L
  DBIL: 0.09 mg/dL
  GLC: 200.6 mg/dL
  IP: 8 mg/dL
  K: 4 meq/L
  LDH: 211.2 IU/L
  Na: 140.2 meq/L
  PL: 153 mg/dL
  RALB: 3.4 g/dL
  TBIL: 0.1 mg/dL
  TC: 82.6 mg/dL
  TG: 79.2 mg/dL
  TP: 5.6 g/dL
  gamma-GTP: 1 IU/L
[2]
  TERMINAL_BW: 275.8 g
  APTT: 20.6 s
  Bas: 0%
  Eos: 1%
  Fbg: 217.4 mg/dL
  Hb: 13.5 g/dL
  Ht: 38.7%
  Lym: 79.6%
  MCH: 21.3 pg
  MCHC: 34.9%
  MCV: 61 fL
  Mono: 2.4%
  Neu: 16%
  PT: 11.8 s
  Plat: 142.9 x10_4/uL
  RBC: 634 x10_4/ul
  Ret: 5.8%
  WBC: 109.2 x10_2/uL
  KIDNEY_L: 1.2 g
  KIDNEY_R: 1.1 g
  KIDNEY_TOTAL: 2.3 g
  LIVER: 12.4 g
  A/G: 1.5
  ALP: 863.2 IU/L
  ALT: 32.2 IU/L
  AST: 66.2 IU/L
  BUN: 15 mg/dL
  CRE: 0.4 mg/dL
  Ca: 10.4 mg/dL
  Cl: 103.2 meq/L
  DBIL: 0.1 mg/dL
  GLC: 194.8 mg/dL
  IP: 8.5 mg/dL
  K: 4.1 meq/L
  LDH: 190 IU/L
  Na: 141 meq/L
  PL: 153 mg/dL
  RALB: 3.3 g/dL
  TBIL: 0.2 mg/dL
  TC: 83.2 mg/dL
  TG: 102.8 mg/dL
  TP: 5.5 g/dL
  gamma-GTP: 1 IU/L
[3]
  TERMINAL_BW: 325.9 g
  APTT: 21.7 s
  Bas: 1%
  Eos: 0.8%
  Fbg: 216.6 mg/dL
  Hb: 14.7 g/dL
  Ht: 41.9%
  Lym: 82%
  MCH: 21 pg
  MCHC: 35%
  MCV: 60.1 fL
  Mono: 1.8%
  Neu: 13.8%
  PT: 12 s
  Plat: 124.2 x10_4/uL
  RBC: 697 x10_4/ul
  Ret: 4.3%
  WBC: 94.2 x10_2/uL
  KIDNEY_L: 1.3 g
  KIDNEY_R: 1.3 g
  KIDNEY_TOTAL: 2.6 g
  LIVER: 13.5 g
  A/G: 1.5
  ALP: 688.8 IU/L
  ALT: 31 IU/L
  AST: 64.2 IU/L
  BUN: 15 mg/dL
  CRE: 0.5 mg/dL
  Ca: 10.6 mg/dL
  Cl: 101.6 meq/L
  DBIL: 0.086 mg/dL
  GLC: 205 mg/dL
  IP: 8 mg/dL
  K: 4 meq/L
  LDH: 198.4 IU/L
  Na: 141.6 meq/L
  PL: 144.4 mg/dL
  RALB: 3.4 g/dL
  TBIL: 0.1 mg/dL
  TC: 72.8 mg/dL
  TG: 93.6 mg/dL
  TP: 5.8 g/dL
  gamma-GTP: 1 IU/L
[4]
  TERMINAL_BW: 396.4 g
  APTT: 21.9 s
  Bas: 0.8%
  Eos: 1.4%
  Fbg: 225 mg/dL
  Hb: 15.5 g/dL
  Ht: 42.3%
  Lym: 80.8%
  MCH: 20.4 pg
  MCHC: 36.6%
  MCV: 55.8 fL
  Mono: 2%
  Neu: 14.8%
  PT: 11.6 s
  Plat: 108.6 x10_4/uL
  RBC: 758.6 x10_4/ul
  Ret: 2.6%
  WBC: 81 x10_2/uL
  KIDNEY_L: 1.3 g
  KIDNEY_R: 1.3 g
  KIDNEY_TOTAL: 2.7 g
  LIVER: 14.9 g
  A/G: 1.3
  ALP: 606.8 IU/L
  ALT: 33 IU/L
  AST: 63.6 IU/L
  BUN: 17.4 mg/dL
  CRE: 0.5 mg/dL
  Ca: 10.3 mg/dL
  Cl: 103 meq/L
  DBIL: 0.092 mg/dL
  GLC: 208.4 mg/dL
  IP: 6.9 mg/dL
  K: 3.7 meq/L
  LDH: 203 IU/L
  Na: 141 meq/L
  PL: 135.2 mg/dL
  RALB: 3.5 g/dL
  TBIL: 0.2 mg/dL
  TC: 72.4 mg/dL
  TG: 104 mg/dL
  TP: 6.1 g/dL
  gamma-GTP: 1.2 IU/L
[5]
  TERMINAL_BW: 235.3 g
  APTT: 18.7 s
  Bas: 0.2%
  Eos: 1%
  Fbg: 224.6 mg/dL
  Hb: 13.3 g/dL
  Ht: 38.4%
  Lym: 82%
  MCH: 21.3 pg
  MCHC: 34.7%
  MCV: 61.5 fL
  Mono: 2%
  Neu: 14.2%
  PT: 11.7 s
  Plat: 134.1 x10_4/uL
  RBC: 624.4 x10_4/ul
  Ret: 5.5%
  WBC: 68.1 x10_2/uL
  KIDNEY_L: 1.1 g
  KIDNEY_R: 1.1 g
  KIDNEY_TOTAL: 2.1 g
  LIVER: 10.5 g
  A/G: 1.5
  ALP: 1018.6 IU/L
  ALT: 33 IU/L
  AST: 65.8 IU/L
  BUN: 14.2 mg/dL
  CRE: 0.4 mg/dL
  Ca: 10.8 mg/dL
  Cl: 102.6 meq/L
  DBIL: 0.094 mg/dL
  GLC: 204.6 mg/dL
  IP: 8.5 mg/dL
  K: 4.3 meq/L
  LDH: 217.4 IU/L
  Na: 140.6 meq/L
  PL: 142.4 mg/dL
  RALB: 3.3 g/dL
  TBIL: 0.1 mg/dL
  TC: 72.4 mg/dL
  TG: 114.4 mg/dL
  TP: 5.5 g/dL
  gamma-GTP: 1.4 IU/L
[6]
  TERMINAL_BW: 272 g
  APTT: 20.6 s
  Bas: 0%
  Eos: 1%
  Fbg: 219.2 mg/dL
  Hb: 14 g/dL
  Ht: 40%
  Lym: 78.2%
  MCH: 21.1 pg
  MCHC: 34.8%
  MCV: 60.7 fL
  Mono: 3%
  Neu: 17.2%
  PT: 11.9 s
  Plat: 142 x10_4/uL
  RBC: 659.8 x10_4/ul
  Ret: 4.8%
  WBC: 96.9 x10_2/uL
  KIDNEY_L: 1.2 g
  KIDNEY_R: 1.2 g
  KIDNEY_TOTAL: 2.3 g
  LIVER: 12 g
  A/G: 1.6
  ALP: 847.6 IU/L
  ALT: 31.2 IU/L
  AST: 67.2 IU/L
  BUN: 15.4 mg/dL
  CRE: 0.4 mg/dL
  Ca: 10.6 mg/dL
  Cl: 103.4 meq/L
  DBIL: 0.1 mg/dL
  GLC: 191.6 mg/dL
  IP: 8.2 mg/dL
  K: 4.4 meq/L
  LDH: 214.2 IU/L
  Na: 140.4 meq/L
  PL: 131.6 mg/dL
  RALB: 3.4 g/dL
  TBIL: 0.2 mg/dL
  TC: 66.8 mg/dL
  TG: 122.2 mg/dL
  TP: 5.5 g/dL
  gamma-GTP: 1 IU/L
[7]
  TERMINAL_BW: 323.6 g
  APTT: 19.8 s
  Bas: 0.8%
  Eos: 1%
  Fbg: 213.2 mg/dL
  Hb: 14.4 g/dL
  Ht: 41.3%
  Lym: 78.4%
  MCH: 20.8 pg
  MCHC: 34.9%
  MCV: 59.5 fL
  Mono: 2%
  Neu: 17.4%
  PT: 12 s
  Plat: 139.4 x10_4/uL
  RBC: 695.4 x10_4/ul
  Ret: 4.1%
  WBC: 103.2 x10_2/uL
  KIDNEY_L: 1.3 g
  KIDNEY_R: 1.2 g
  KIDNEY_TOTAL: 2.5 g
  LIVER: 13 g
  A/G: 1.4
  ALP: 752 IU/L
  ALT: 36 IU/L
  AST: 68.6 IU/L
  BUN: 15.2 mg/dL
  CRE: 0.4 mg/dL
  Ca: 10.6 mg/dL
  Cl: 102 meq/L
  DBIL: 0.096 mg/dL
  GLC: 192.2 mg/dL
  IP: 7.7 mg/dL
  K: 3.9 meq/L
  LDH: 190.2 IU/L
  Na: 141.2 meq/L
  PL: 129.4 mg/dL
  RALB: 3.4 g/dL
  TBIL: 0.2 mg/dL
  TC: 68.8 mg/dL
  TG: 79.4 mg/dL
  TP: 5.8 g/dL
[8]
  TERMINAL_BW: 391.5 g
  APTT: 19.1 s
  Bas: 0.6%
  Eos: 1.2%
  Fbg: 215.6 mg/dL
  Hb: 15.4 g/dL
  Ht: 42.5%
  Lym: 80.4%
  MCH: 20.3 pg
  MCHC: 36.3%
  MCV: 55.9 fL
  Mono: 2.4%
  Neu: 15%
  PT: 11.7 s
  Plat: 124.2 x10_4/uL
  RBC: 759.6 x10_4/ul
  Ret: 2.9%
  WBC: 104.7 x10_2/uL
  KIDNEY_L: 1.3 g
  KIDNEY_R: 1.3 g
  KIDNEY_TOTAL: 2.7 g
  LIVER: 14 g
